According to paper PMC3756062, “Identification of Putative Steroid Receptor Antagonists in Bottled Water: Combining Bioassays and High-Resolution Mass Spectrometry” (PLoS ONE, 2013):

What was measured:
human androgen receptor = target: T1, human androgen receptor (Homo sapiens, UniProt P10275); assay: Yeast Antiandrogen Screen (YAAS), reporter gene assay; assay type: cell-based; conditions: coincubated with 2.5 nM testosterone; for IC50: authentic standards 300 nM to 1 mM in ethanol, 24 h, three experiments, four-parameter logistic function, read-out: IC50, antiandrogenic in the YAAS
T1 construct: expressed in transfected cells
T1 sequence (P10275 1-920): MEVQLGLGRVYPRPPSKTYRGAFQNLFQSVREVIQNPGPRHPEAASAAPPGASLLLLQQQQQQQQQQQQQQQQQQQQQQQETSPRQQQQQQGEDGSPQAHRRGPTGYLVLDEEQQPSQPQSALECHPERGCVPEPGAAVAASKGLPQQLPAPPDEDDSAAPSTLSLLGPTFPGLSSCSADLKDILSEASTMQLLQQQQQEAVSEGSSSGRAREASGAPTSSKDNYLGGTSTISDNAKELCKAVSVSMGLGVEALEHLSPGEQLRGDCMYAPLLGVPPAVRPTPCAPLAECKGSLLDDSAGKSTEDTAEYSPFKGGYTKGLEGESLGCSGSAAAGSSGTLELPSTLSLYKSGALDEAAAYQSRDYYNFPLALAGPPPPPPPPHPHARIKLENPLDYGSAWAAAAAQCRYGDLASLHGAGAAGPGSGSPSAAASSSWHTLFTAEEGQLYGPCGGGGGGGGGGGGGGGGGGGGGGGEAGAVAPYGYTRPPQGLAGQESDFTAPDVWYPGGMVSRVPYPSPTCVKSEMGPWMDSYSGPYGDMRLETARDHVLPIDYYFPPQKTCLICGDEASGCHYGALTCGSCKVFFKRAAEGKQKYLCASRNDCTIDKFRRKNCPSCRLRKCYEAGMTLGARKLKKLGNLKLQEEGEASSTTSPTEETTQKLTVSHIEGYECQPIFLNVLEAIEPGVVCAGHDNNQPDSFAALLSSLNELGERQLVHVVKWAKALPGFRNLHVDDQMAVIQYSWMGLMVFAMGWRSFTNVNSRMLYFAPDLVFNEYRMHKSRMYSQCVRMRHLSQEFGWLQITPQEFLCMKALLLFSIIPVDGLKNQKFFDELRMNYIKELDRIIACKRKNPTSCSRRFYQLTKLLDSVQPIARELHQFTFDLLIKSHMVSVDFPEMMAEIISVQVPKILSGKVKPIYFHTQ
Experimental: (§1) The antiestrogenic and antiandrogenic activity of bottled water extracts was evaluated in reporter gene assays for human estrogen receptor alpha (Yeast Antiestrogen Screen, YAES) and human androgen receptor (Yeast Antiandrogen Screen, YAAS). To detect antagonists, Yeast Estrogen Screen and Yeast Androgen Screen were modified to analyze samples in the presence of the endogenous ligand of each receptor (17β-estradiol, testosterone). Receptor antagonists present in the sample cause a displacement of the endogenous ligand resulting in a decreased reporter gene signal.
(§2) The general assay procedures have been described previously, [24]. Briefly, SPE extracts were diluted 480 fold in assay medium and coincubated with 30 pM 17β-estradiol (YAES) or 2.5 nM testosterone (YAAS) dissolved in ethanol. Negative controls, solvent controls (ethanol and DMSO) with and without endogenous ligand, and positive controls (ligand coincubated with a known receptor antagonist, YAES: 80 µM hydroxytamoxifen, YAAS: 50 µM flutamide) were included in each experiment. The maximum solvent concentration was 0.4% v/v in all cases. Samples were analyzed in eight replicates, controls in 8–48 replicates. After 24 hours incubation at 30°C turbidity was read to assess cytotoxicity and β-galactosidase activity was determined. Samples from three extractions were tested in three independent YAES and YAAS experiments each.
(§3) Inhibition data is reported as means of three SPE extracts per sample analyzed in three experiments (with eight replicates each) resulting in a sample size of 63–72. The reported antagonistic activity corresponds to a sample volume equivalent to 3.75 mL bottled water.
Chemicals with best matching fragmentation and plausible structure (DEHM, DOM, DEHF, DOF) were purchased as authentic standards. Their antiestrogenic and antiandrogenic activity was evaluated in the bioassays (three experiments) as described above in concentrations ranging from 300 nM to 1 mM (in ethanol).

[1] = target: T2, human estrogen receptor alpha (Homo sapiens, UniProt P03372); assay: Yeast Antiestrogen Screen (YAES), reporter gene assay; assay type: cell-based; conditions: coincubated with 30 pM 17β-estradiol; for IC50: authentic standards 300 nM to 1 mM in ethanol, 24 h, three experiments, four-parameter logistic function, read-out: IC50, antiestrogenic in the YAES
T2 construct: expressed in transfected cells
T2 sequence (P03372 1-595): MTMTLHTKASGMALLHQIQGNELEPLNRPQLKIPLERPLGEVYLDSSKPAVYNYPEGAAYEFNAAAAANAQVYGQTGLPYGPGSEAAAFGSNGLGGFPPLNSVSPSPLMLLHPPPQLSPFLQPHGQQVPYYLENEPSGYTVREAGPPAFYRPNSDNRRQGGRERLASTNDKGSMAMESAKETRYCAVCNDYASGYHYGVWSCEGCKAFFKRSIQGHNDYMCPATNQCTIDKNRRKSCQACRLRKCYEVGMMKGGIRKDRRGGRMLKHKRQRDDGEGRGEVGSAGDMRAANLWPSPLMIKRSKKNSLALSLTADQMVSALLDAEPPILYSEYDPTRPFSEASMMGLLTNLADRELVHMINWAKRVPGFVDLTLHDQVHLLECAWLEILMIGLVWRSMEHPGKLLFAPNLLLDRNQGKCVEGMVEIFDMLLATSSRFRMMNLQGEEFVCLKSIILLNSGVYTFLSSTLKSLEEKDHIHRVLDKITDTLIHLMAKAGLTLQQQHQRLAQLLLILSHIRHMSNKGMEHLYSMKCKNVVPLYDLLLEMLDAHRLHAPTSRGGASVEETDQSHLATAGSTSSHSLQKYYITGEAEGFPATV
Experimental: as §1, §2, §3
Their antiestrogenic and antiandrogenic activity was evaluated in the bioassays (three experiments) as described above in concentrations ranging from 300 nM to 1 mM (in ethanol).

Row | IC50 (human androgen receptor) | antiandrogenic activity in the YAAS (result in words) (human androgen receptor) | IC50 [1] | antiestrogenic activity in the YAES (result in words) [1] | SMILES
1 | 245 µM | at high concentrations | 107 µM | at high concentrations | CCCCCCCCOC(=O)/C=C\C(=O)OCCCCCCCC [DOM, 2-Butenedioic acid (2Z)-, 1,4-dioctyl ester]
2 |  | inactive |  |  | CCCCC(CC)COC(=O)/C=C\C(=O)OCC(CC)CCCC (stereo not shown) [DEHM, 2-Butenedioic acid (2Z)-, 1,4-bis(2-ethylhexyl) ester]
3 |  | inactive |  |  | CCCCC(CC)COC(=O)/C=C/C(=O)OCC(CC)CCCC (stereo not shown) [DEHF, 2-Butenedioic acid (2E)-, 1,4-bis(2-ethylhexyl) ester]
4 | 15.8 µM | partially | 35.4 µM | partially | CCCCCCCCOC(=O)/C=C/C(=O)OCCCCCCCC [DOF, 2-Butenedioic acid (2E)-, 1,4-dioctyl ester]
